For orientation: IC50 means the concentration that inhibits the measured activity by half. In general, melting point refers to the temperature of the solid-liquid transition.

Molecules are shown by their SMILES.

One data set deals with T1, PTP-1B (Homo sapiens, UniProt P18031).
T1 construct: PTP-1B (purified, 1 mg/mL) as a 1:250 dilution
T1 sequence (P18031 1-321 limits assumed): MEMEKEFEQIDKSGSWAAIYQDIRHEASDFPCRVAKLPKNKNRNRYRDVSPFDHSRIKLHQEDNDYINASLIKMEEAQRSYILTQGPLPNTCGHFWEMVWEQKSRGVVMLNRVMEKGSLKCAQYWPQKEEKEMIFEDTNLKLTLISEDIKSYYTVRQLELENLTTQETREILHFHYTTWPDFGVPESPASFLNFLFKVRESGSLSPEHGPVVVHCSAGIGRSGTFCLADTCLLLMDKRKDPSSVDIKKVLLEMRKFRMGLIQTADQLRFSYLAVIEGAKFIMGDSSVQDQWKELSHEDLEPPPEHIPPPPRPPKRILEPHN
The data set can be described thus: pNPP assay for tyrosine phosphatase inhibitory activity. As to conditions: Table 1; pNPP substrate 10 mM, 30° C., 10 minutes, absorbance at 405 nm. The class given is biochemical. How it is done:
The compounds provided herein are evaluated for biological activity as inhibitors of PTP-1B using, for example, a pNPP assay. Such an assay can be used to screen compounds for tyrosine phosphatase inhibitory activity as shown in Example 39.
A 5× stock of pNPP (p-nitrophenol phosphate) substrate is prepared as 50 mM pNPP in assay buffer. Various tyrosine phosphatase solutions can be prepared as follows: • PTP-1B (purified, 1 mg/mL) as a 1:250 dilution (to a final concentration of 4:g/mL); • TC-PTP (NEB, 1000 units in 100:L) as a 1:50 dilution (to a final concentration of 2 U/10:L (4:g/mL)); • CD45 (Calbiochem, 20:g, 400 units in 100: L) as a 1 :50 dilution (to a final concentration of 0.8 U/10:L (4:g/mL)); • LAR (NEB, 1000 units in 200:L) as a 1:75 dilution (to a final concentration of 0.7 U/10:L (4:g/mL)); and • PTP-β (UBI, #14-350, 10,000 units, 40:g/571:L) as a 1:17.5 dilution (to a final concentration of 10 U/10:L (4:g/mL));
The compound to be tested is prepared as 1:16.7 and 1:50 dilutions from stock in a total volume of 1 00:M DMSO to give final concentrations of 626 and 200:M. The reaction mixtures are prepared in a 96-well microtiter plate (on ice) as 55:L assay buffer, 5:L of the diluted compound (to a final concentration of 31.3 and 10:M), 20:L of the pNPP substrate solution (to a final concentration of 10 mM) and 20:L PTPase in assay buffer. The reactants are mixed well, the plate placed in a water bath at 30° C. and incubated for 10 minutes. The reaction is then terminated by adding 1 OO:L of 2M K2CO3 per well, and the absorbance is measured at 405 nm by conventional means.
Unless otherwise indicated, this assay was used to determine activity for the selected compounds whose activity is recorded in Table 1 and Table 2.
In the case of `O=C(O)c1ccccc1-c1cccc(-c2cnc(N(Cc3ccc(C(F)(F)P(=O)(O)O)c(Br)c3)c3ccc(Cl)c(Cl)c3)o2)c1` [Example 20, 3′-{2-[[3-Bromo-4-(difluoro-phosphono-methyl)-benzyl]-(3,4-dichloro-phenyl)-amino]-oxazol-5-yl}-biphenyl-2-carboxylic acid], the half-inhibitory concentration (IC50) was in the range of 100 to 500 nM.

Regarding `O=C(O)c1ccccc1Oc1cccc(-c2cnc(N(Cc3ccc(C(F)(F)P(=O)(O)O)c(Br)c3)c3ccc(Cl)c(Cl)c3)o2)c1` [Example 18, 2-(3-{2-[[3-Bromo-4-(difluoro-phosphono-methyl)-benzyl]-(3,4-dichloro-phenyl)-amino]-oxazol-5-yl}-phenoxy)-benzoic acid], the 50% inhibitory concentration (IC50) was in the range of 100 to 500 nM.

With `COC(=O)c1ccc(-c2cnc(N(Cc3ccc(C(F)(F)P(=O)(O)O)c(Br)c3)c3ccc(Cl)c(Cl)c3)o2)cc1` [Example 2, 4-{2-[[3-Bromo-4-(difluoro-phosphono-methyl)-benzyl]-(3,4-dichloro-phenyl)-amino]-oxazol-5-yl}-benzoic acid methyl ester], the IC50 lay within 500 to 1000 nM.

In turn, `COC(=O)c1ccccc1-c1ccc(-c2cnc(N(Cc3ccc(C(F)(F)P(=O)(O)O)c(Br)c3)c3ccc(Cl)c(Cl)c3)o2)cc1` [Example 15, 4′-{2-[[3-Bromo-4-(difluoro-phosphono-methyl)-benzyl]-(3,4-dichloro-phenyl)-amino]-oxazol-5-yl}-biphenyl-2-carboxylic acid methyl ester] registered an IC50 of 1000 to 10000 nM.

The same data set, now with this note: Table 2; pNPP substrate 10 mM, 30° C., 10 minutes, absorbance at 405 nm.
Turning to `CS(=O)(=O)c1ccc(-c2cnc(N(Cc3ccc(C(F)(F)P(=O)(O)O)c(Cl)c3)c3ccc(Cl)c(Cl)c3)o2)cc1` [Example 31, {[2-Chloro-4-({(3,4-dichloro-phenyl)-[5-(4-methanesulfonyl-phenyl)-oxazol-2-yl]-amino}-methyl)-phenyl]-difluoro-methyl}-phosphonic acid], the half-maximal inhibitory concentration (IC50) is 100 to 500 nM.

`O=P(O)(O)C(F)(F)c1ccc(CN(c2ccc(F)cc2)c2ncc(-c3ccc(-c4nn[nH]n4)cc3)o2)cc1Br` [Example 38, ({2-Bromo-4-[((4-fluoro-phenyl)-{5-[4-(2H-tetrazol-5-yl)-phenyl]-oxazol-^2-yl}-amino)-methyl]-phenyl}-difluoro-methyl)-phosphonic acid] came in with an IC50 below 100 nM.

The compound `CCCCCCCCCCCCCCCCOCCCOP(=O)(O)C(F)(F)c1ccc(CN(c2ccc(Cl)c(Cl)c2)c2ncc(-c3ccc(S(C)(=O)=O)cc3)o2)cc1Br` [{[2-Bromo-4-({(3,4-dichloro-phenyl)-[5-(4-methanesulfonyl-phenyl)-oxazol-2-yl]-amino}-methyl)-phenyl]-difluoro-methyl}-phosphonic acid mono-(3-hexadecyloxy-propyl) ester] had a 50% inhibitory concentration (IC50) of 1000 to 10000 nM.

The compound `CCCCCCCCCCCCCCCCOCCCOP(=O)(O)C(F)(F)c1ccc(CN(c2ccc(F)cc2)c2ncc(-c3ccc(S(C)(=O)=O)cc3)o2)cc1Br` [{[2-Bromo-4-({(4-fluoro-phenyl)-[5-(4-methanesulfonyl-phenyl)-oxazol-2-yl]-amino}-methyl)-phenyl]-difluoro-methyl}-phosphonic acid mono-(3-hexadecyloxy-propyl) ester] registered a concentration for half-maximal inhibition (IC50) of 1000 to 10000 nM.

`COc1cccc(CN(Cc2ccc(C(F)(F)P(=O)(O)O)c(Br)c2)c2ncc(-c3ccc(S(C)(=O)=O)cc3)o2)c1` [[(2-Bromo-4-{[[5-(4-methanesulfonyl-phenyl)-oxazol-2-yl]-(3-methoxy-benzyl)-amino]-methyl}-phenyl)-difluoro-methyl]-phosphonic acid] had a 50% inhibitory concentration (IC50) of 100 to 500 nM.

`O=C(O)c1ccccc1-c1ccc(-c2cnc(N(Cc3ccc(C(F)(F)P(=O)(O)O)c(Br)c3)c3ccc(F)cc3)o2)cc1` [Example 28, 4′-{2-[[3-Bromo-4-(difluoro-phosphono-methyl)-benzyl]-(4-fluorophenyl)-amino]-oxazol-5-yl}-biphenyl-2-carboxylic acid] had a concentration for half-maximal inhibition (IC50) of 100 to 500 nM.

`CS(=O)(=O)c1ccc(-c2cnc(N(Cc3ccc(C(F)(F)P(=O)(O)O)c(Cl)c3)c3ccccc3)o2)cc1` [{[2-Chloro-4-({(5-(4-methanesulfonyl-phenyl)-oxazol-2-yl]-phenyl-amino}-methyl)-phenyl]-difluoro-methyl}-phosphonic acid] returned an IC50 of 100 to 500 nM.

In turn, `CS(=O)(=O)c1ccc(-c2cnc(N(Cc3ccc(C(F)(F)P(=O)(O)O)c(Cl)c3)c3ccc(F)cc3)o2)cc1` [{[2-Chloro-4-({(4-fluoro-phenyl)-[5-(4-methanesulfonyl-phenyl)-oxazol-2-yl]-amino}-methyl)-phenyl]-difluoro-methyl}-phosphonic acid] gave an IC50 of 100 to 500 nM.

System in a further data set: not given
Experiment: not given
Conditions: not given
As for `CS(=O)(=O)c1ccc(-c2cnc(N(Cc3ccc(C(F)(F)P(=O)(O)O)c(Cl)c3)c3ccc(Cl)c(Cl)c3)o2)cc1` [Example 31, {[2-Chloro-4-({(3,4-dichloro-phenyl)-[5-(4-methanesulfonyl-phenyl)-oxazol-2-yl]-amino}-methyl)-phenyl]-difluoro-methyl}-phosphonic acid], the melting point was in the range of 141 to 143 °C.
